{"source": "patent US20150037399A1", "about": "“NOVEL USE OF PIPOXOLAN AND ITS PHARMACEUTICAL COMPOSITION” (China Medical University, priority 2013, published 2015)", "key": {"[1]": {"system": "cerebral infarction area in the brain of ischemic rats", "assay": "Transient focal cerebral ischemia-reperfusion model, infarct area (TTC staining)", "assay_type": "in vivo, Sprague-Dawley (SD) rats", "settings": "24 hr after reperfusion, vs control group", "method": "Animals are male Sprague-Dawley (SD) rats, weighing 225-275 g and male ICR mice, weighing 25-30 g were purchased from BioLASCO Co. Ltd. (Taipei, Taiwan). All animals were fed regular chow and housed in standard cages at a constant temperature of 22±1° C. and relative humidity of 55±5% with 12 hr inverted light-dark cycle for 1 week prior to the experiments. Surgery was performed under zoletil® anesthesia. Five to six animals were used to obtain consistent data in each group. Pipoxolan was dissolved in dimethylsulfoxide (DMSO) and diluted in tissue culture medium before use. Focal ischemia was induced by occlusion of both common carotid arteries (CCA) and the right middle cerebral artery (MCA). Eighteen rats were randomly assigned to 3 treatment groups, six rats for each group. Group 1 rats were treated with saline and groups 2 and 3 treated with pipoxolan (10 mg/kg and 30 mg/kg, respectively). Rats were fasted overnight with free access to water. […] After 24 hr, all rats were alive and neurobehavioral deficits evaluation and infarct assessment were performed Twenty four hours following reperfusion, neurological function of rats was assessed. […] The image of each section was digitized and the infarct area was determined morphometrically using Image-Pro Plus 6.0 (Media Cybernetics, Md., USA)."}, "[2]": {"system": "carotid-ligation induced intimal hyperplasia", "assay": "Carotid ligation model, intima/media ratio (hematoxylin-eosin staining)", "assay_type": "in vivo, ICR mice", "settings": "mice, vs control group", "method": "Male ICR mice, weighing 20 to 25 g, were used as a carotidligation model. Fifteen mice were randomly assigned to 3 treatment groups, five mice for each group. All mice were fasted overnight with free access to water, then anesthetized with zoletil® (25 mg/kg i.p.). Carotid ligation was performed by a midline neck incision and the left common carotid artery exposed. The carotid artery was completely ligated just proximal to the carotid bifurcation, and the right carotid artery served as a non-injured control artery. The incision was closed after ligation, and the animals were allowed to recover. On the day of carotid ligation, mice were randomized into 3 treatment groups and anesthetized as described. Group 1 mice were treated with saline and groups 2 and 3 treated with pipoxolan (10 mg/kg and 30 mg/kg, respectively). Subsequent pipoxolan and saline treatments were given by gastric gavage on the second day after carotid ligation and once daily for 28 days. […] Images were digitized and analyzed with Image-Pro software. The areas of the lumen, internal elastic lamina (IEL), and external elastic lamina (EEL) were determined by computerized planimetry. The intima area was calculated by subtracting the luminal from the IEL area, and media area was determined by subtracting the IEL area from the EEL area. The ratio of intima to media area (I/M ratio) was calculated and analyzed. […]"}, "[3]": {"system": "PDGF-BB-induced migration of A7r5 cells (VSMCs)", "assay": "Transwell migration assay", "assay_type": "cell-based", "settings": "PDGF-BB 30 ng/ml 48 hr, vs PDGF-BB control, read-out: percent inhibition of cell migration across the membrane", "method": "The VSMCs cell line A7r5 was purchased from Bioresource Collection and Research Center (Hsinchu, Taiwan). A7r5 cells were plated onto 6-well plates in DMEM, supplemented with 10% FBS, 100 units/ml penicillin, 100 μg/ml streptomycin and 2 mM L-glutamine and grown at 37° C. under a humidified 5% CO2 and 95% air at one atmosphere. Effects of pipoxolan on VSMCs migration were further investigated by a transwell migration chamber with a collagen-coated polycarbonate filter. A7r5 cells (2×10^5 cells) were seeded on a transwell apparatus (a 6.5-mm polyethylene terephthalate membrane with 8-μm pores) and treated with pipoxolan (0, 5, 10 and 15 μM) in the presence of PDGF-BB (30 ng/ml) for 48 hr. The cells were then trypsinized, resuspended in 0.5% FBS medium. FBS/DMEM (10%) was added to the bottom chamber of each well as the chemoattractant. Cells were allowed to migrate for 8 hr through the membrane to the underside of the apparatus. Cells were then fixed with methanol for 10 min and stained with Giemsa solution for 30 min. The cells migrating to the lower outside of the insert membrane were counted manually using a microscope and the NIS-Elements software."}, "MEK": {"system": "MEK", "assay": "Western blot of MEK in PDGF-BB-stimulated VSMCs", "assay_type": "cell-based", "method": "(§1) The role of matrix metalloproteinase-2/9 (MMP-2/9) and the Ras/MEK/ERK signaling pathways were used to evaluate the effect of pipoxolan on VSMCs migration. The protein expression levels were determined by Western blot analysis. Each vertical bars represented mean±S.E. **p<0.01 and ***p<0.001 compared with control group (n=6 in each group)."}, "MMP-9": {"system": "MMP-9", "assay": "Western blot of MMP-9 in PDGF-BB-stimulated VSMCs", "assay_type": "cell-based", "settings": "Rattus norvegicus, VSMC, read-out: inhibition of MMP-9 level", "method": "as §1"}}, "data": [{"smiles": "Cl.O=C1OC(CCN2CCCCC2)OC1(c1ccccc1)c1ccccc1", "note": "(stereo not shown) [pipoxolan, 5,5-diphenyl-2-(2-piperidin-1-ylethyl)-1,3-dioxolan-4-one hydrochloride]", "values": [{"measurement": "percent reduction of cerebral infarction", "setting": "[1]; 10 mg/kg p.o. 1 hr prior to ischemia", "value": 43.18, "unit": "%"}, {"measurement": "percent reduction of cerebral infarction", "setting": "[1]; 30 mg/kg p.o. 1 hr prior to ischemia", "value": 73.43, "unit": "%"}, {"measurement": "percent reduction of I/M ratio (intima/media)", "setting": "[2]; 10 mg/kg p.o. once daily for 28 days after carotid ligation", "value": 24.21, "unit": "%"}, {"measurement": "percent reduction of I/M ratio (intima/media)", "setting": "[2]; 30 mg/kg p.o. once daily for 28 days after carotid ligation", "value": 47.20, "unit": "%"}, {"measurement": "inhibition at 5 µM", "setting": "[3]; 5 μM", "value": 46.2, "unit": "%"}, {"measurement": "inhibition at 10 µM", "setting": "[3]; 10 μM", "value": 62.2, "unit": "%"}, {"measurement": "inhibition at 15 µM", "setting": "[3]; 15 μM", "value": 76.5, "unit": "%"}, {"measurement": "reduction of MEK protein level", "setting": "MEK; 5 μM", "value": 21.67, "unit": "%"}, {"measurement": "reduction of MEK protein level", "setting": "MEK; 10 μM", "value": 21, "unit": "%"}, {"measurement": "reduction of MEK protein level", "setting": "MEK; 15 μM", "value": 26.67, "unit": "%"}, {"measurement": "inhibition at 5 µM", "setting": "MMP-9; 5 μM", "value": 39.4, "unit": "%"}, {"measurement": "inhibition at 10 µM", "setting": "MMP-9; 10 μM", "value": 45.4, "unit": "%"}, {"measurement": "inhibition at 15 µM", "setting": "MMP-9; 15 μM", "value": 36.6, "unit": "%"}]}]}
